Assay results from patent US20250009843A1, “COMPOSITIONS AND METHODS FOR TREATMENTS BY MODULATION OF EXCITABLE TISSUES ACTIVITIES, AND FOR ANTIMICROBIAL APPLICATIONS” (priority 2021, published 2025).

Legend:
[1] = tested on: dorsal root ganglia (DRG) (sensory) neurons; settings: literature value; cited from earlier work
[2] = tested on: dorsal root ganglia (DRG) (sensory) neurons; experiment: Single cell patch clamp on DRG neurons (sodium current, action potentials); format: cell-based, rat
Protocol: Dorsal Root Ganglia (DRG) sensory neurons were extracted from […] (Cdram). The DRG explants were dissected from the cervical and thoracic regions of the spine of neonatal rat pups (P5) and placed in cold HBSS (lx) without Ca^2+/Mg^2+ (Invitrogen, USA). After cleaning the remnants of peripheral nerve processes, DRGS were seeded in 12-well glass-coated laminin plates. Cells were feed every 2/3 days and they were processed for single cell patch clamping.
Whole cell patch clamp configuration was used to record from 100 day iPSC derived neurons and DRG neurons. […]
Recordings were made using the EPC10 patch clamp amplifier from HEKA. Voltage-dependent Na^+ and K^+ currents were recorded in voltage clamp mode from a holding potential of −70 mV; voltage step depolarization was applied up to +20 mV in 10 mV increments and recorded for 200 ms. All data were recorded unfiltered for voltage and current clamp recording at 50.0 kHz and 20.0 kHz, respectively.
Intrinsic firing properties of neurons were recorded in current clamp mode, with step current injections from a holding value of −5 pA up to +45 pA, for 500 ms, in 10 pA increments. Spontaneous action potential (AP) was recorded in current clamp mode at zero current injection (resting membrane potential) just after whole cell configuration was achieved. […]

[3] = tested on: DRG cells; experiment: Microelectrode Array (MEA) electrical activity of capsaicin-stimulated DRG cells; format: cell-based; settings: dose range 10-1000 μg/ml; FIG. 3B
[4] = tested on: DRGs; format: cell-based; settings: 24-72 hours, 2.5 mg/ml of HA or equivalent
Protocol: (§1) FIG. 4: Data of the effect of various peptide drug embodiments and peptide alone on metabolic activity and viability of cell types (DRG: dorsal root ganglion; hChon: human normal chondrocytes; OA: human OA chondrocytes). n=3 in all cases; all tested at 2.5 mg/ml of HA or equivalent using gram:gram ratio (See Table). Details on test materials given in below table. […] Panel B: Viability assessed using Live/Dead assay. No significant difference between peptide drug at 24-72 hours in DRGs compared to control.

[5] = tested on: TRPV1 pathway in cortical neurons; experiment: Calcium imaging of cortical neurons (capsaicin, glutamic acid); format: cell-based; settings: 1 μg/ml
Protocol: TRPV1 channels on neurons open in response to stimuli like capsaicin. Once open cations like calcium flow into the cell, which triggers action potentials and the sensation of pain. Cells tested were cortical neurons, n=3 unless noted. Panel A: Calcium imaging is used to measure calcium flow across neural cell membranes. Cells treated in sequence with no chemical (control), PLA (1.9 kDa at 1 μg/ml), capsaicin, and then glutamic acid. […] This is an effect seen by TRPV1 agonists that are used as analgesics such as capsaicin.

[6] = tested on: cortical neurons; experiment: Patch clamp of cortical neurons (sodium current); format: cell-based; settings: 1 μg/ml; FIG. 10C
[7] = tested on: E. coli; experiment: Optical density assay of antimicrobial effect; format: cell-based; settings: for E. coli growth (optical density as percentage of control): 16 hours incubation, polymers and conjugates 1-5 mg/ml, PLA 0.01-0.5 mg/ml
Protocol: As an example of this Hydrobloc prototypes and PLA 1.9 kDa at various concentrations were incubated with E. coli in wells. If microbial growth occurs, then the optical density increases reflecting the colloidal nature of bacterial cells. As a control a blank well is prepared containing growth medium and saline. The results after 16 hours incubation are presented in the figure as a percentage of control. Panel A: Optical density results for various Hydrobloc prototypes and related test materials.
(§2) Hyaluronic acid (2.2-2.4 MDa) or PEG (10 kDa) was used as base polymer conjugated to Poly-L-Arginine (1.9 kDa or 15-70 kDa) as the AMP in varying mass/mass ratios of conjugation, and at different concentrations. Controls included empirical admixtures of the polymer/AMP as well as just the polymer or AMP.
Principle: Antimicrobial test materials added to wells at various concentrations, wells seeded with microbe. Microbial growth increase the optical density (OD)—assay monitors ability of microbe to grow in presence of test material. […] The microbe used was E. Coli. The results are shown in FIG. 13 with the values presented as a percentage of control (blank). […] The OD is ˜≤0.0 at all concentrations (0.01-0.5 mg/ml). Overall statistical significance is seen with 0.25 mg/ml and 5 mg/ml.

[8] = tested on: E. coli; experiment: Kirby-Bauer disk diffusion susceptibility test; format: cell-based; settings: BP12P03 1-10 mg/ml; PLA 0.5 mg/ml
Protocol: as §2
(§3) Principle: Disks were saturated with antimicrobial test material and place on agar seeded with microbe. test material diffuses out and after incubation diameter of the clear zone is proportional to potency against the microbe. BP12P03 at 1 mg/ml −10 mg/ml; PLA (1.9 kDA) at 0.5 mg/ml were tested. Microbes used were S. aureus, S. epidermis and E. coli.

[9] = tested on: S. aureus; experiment: Kirby-Bauer disk diffusion susceptibility test; format: cell-based; settings: BP12P03 1-10 mg/ml; PLA 0.5 mg/ml
Protocol: as §2, §3

[10] = tested on: S. epidermis; experiment: Kirby-Bauer disk diffusion susceptibility test; format: cell-based; settings: BP12P03 1-10 mg/ml; PLA 0.5 mg/ml
Protocol: as §2, §3

[11] = tested on: DRG: dorsal root ganglion; hChon: human normal chondrocytes; OA: human OA chondrocytes; format: cell-based; settings: 24-72 hours; 2.5 mg/ml of HA or equivalent by gram:gram ratio; three cell types
Protocol: as §1

Q: For `CCN(CC)CC(=O)Nc1c(C)cccc1C` [Lidocaine], which “Reduction of sodium current reported in the literature” value [1] is on record?
A: 38%

Q: With `NC1=N[C@H](O)[C@H]2[C@H]3O[C@]4(O)O[C@@H]([C@@H](O)[C@@]2(N1)[C@@H]4O)[C@]3(O)CO` [TTX, tetrodotoxin] as the compound, how does the “Percentage reduction of sodium current (control)” value [2] read?
A: approximately 99%

Q: With Poly-L-Arginine [PLA 1.9 kDa] as the compound, how does the “Concentration at which most suppression of spike count is seen” value [3] read?
A: 10 µg/mL

Q: And the “Viability (Live/Dead)” value [4]?
A: best viability profile

Q: And the “Capsaicin (TRPV1 pathway) response” value ([5]; cortical neurons, n=3)?
A: blocks the capsaicin (TRPV1 pathway response)

Q: What about the Glutamate response ([5]; glutamic acid after capsaicin) of the same compound?
A: glutamate response is unaffected

Q: What about the “Block of sodium current” value [6] of the same compound?
A: time dependent effect—getting stronger with time

Q: And the “E. coli growth (optical density as percentage of control)” value [7]?
A: potent giving quantifiable antimicrobial effects at all concentrations tested

Q: And the “E. coli growth (optical density as percentage of control)” value ([7]; listed as PLA)?
A: very potent

Q: And the “Optical density (OD)” value ([7]; all concentrations (0.01-0.5 mg/ml))?
A: ≤ 0.0

Q: And the “Activity in disk diffusion” value [8]?
A: activity against all tested species

Q: And the “Activity in disk diffusion” value [9]?
A: activity against all tested species

Q: What about the “Activity in disk diffusion” value [10] of the same compound?
A: activity against all tested species

Q: For “Poly-L-arginine hydrochloride [Hydrobloc C01]”, which “Metabolic activity (Alamar Blue)” value [11] is on record?
A: negatively affect metabolic activity

Q: What about the “Viability (Live/Dead)” value [4] of the same compound?
A: negatively affect viability
